Experimental data published in patent US8852634B2, “Dosage formulation” (Hoffmann-La Roche Inc., priority 2005, dated 2014).
Read-outs that look alike come from different tables or passages of the source.

Test: Solubility of the crystalline compounds in aqueous media
Format: physicochemical

solubility (aqueous buffer solutions of pH 3.0-7.0, read-out: solubility in aqueous buffer solutions): < 0.1 µg/mL
solubility (water, 'above noted insolubilities', read-out: solubility in water): < 0.1 µg/mL
Structure (SMILES): Cc1ccccc1-c1cc(N2CCOCC2)ncc1N(C)C(=O)C(C)(C)c1cc(C(F)(F)F)cc(C(F)(F)F)c1 [2-(3,5-bis-trifluoromethyl-phenyl)-N-methyl-N-(6-morpholin-4-yl-4-o-tolyl-pyridin-3-yl)-isobutyramide]
